One series concerns Lucilia cuprina. Kind of series: Lucilia cuprina test. The following applies: application rate 100 ppm, L1 larvae, after 2 days. The series is classed as in vivo. Here is the method:
Lucilia cuprina Test Solvent: dimethyl sulfoxide To produce a suitable active ingredient formulation, 10 mg of active ingredient are mixed with 0.5 ml of dimethyl sulfoxide, and the concentrate is diluted with water to the desired concentration. About 20 L1 larvae of the Australian sheep blowfly (Lucilia cuprina) are transferred into a test vessel containing minced horsemeat and the active ingredient formulation of the desired concentration. After 2 days, the kill in % is determined. 100% means that all the larvae have been killed; 0% means that no larvae have been killed.

Another series relates to Phaedon cochleariae. Briefly: Phaedon cochleariae spray test. Type of series: in vivo. The following applies: spray on Chinese cabbage leaf discs, after 7 days. As to the method: Phaedon cochleariae—Spray Test
Solvent: 78.0 parts by weight of acetone • • 1.5 parts by weight of dimethylformamide
Emulsifier: alkylaryl polyglycol ether
To produce a suitable active ingredient formulation, 1 part by weight of active ingredient is dissolved with the specified parts by weight of solvent and made up to the desired concentration with water containing an emulsifier concentration of 1000 ppm. To produce further test concentrations, the formulation is diluted with emulsifier-containing water.
Discs of Chinese cabbage leaves (Brassica pekinensis) are sprayed with an active ingredient formulation of the desired concentration and, after drying, populated with larvae of the mustard beetle (Phaedon cochleariae).
After 7 days, the efficacy in % is determined. 100% means that all the beetle larvae have been killed; 0% means that no beetle larvae have been killed.

Series [1] relates to Myzus persicae. Kind of series: Myzus persicae oral test. The series is classed as in vivo. The following applies: 120 h, application rate 4 ppm, after 5 days, read-out: efficacy (aphids killed). As to the method: Myzus persicae—Oral Test Solvent: 100 parts by weight of acetone To produce a suitable active ingredient formulation, 1 part by weight of active ingredient is dissolved with the stated parts by weight of solvent and made up to the desired concentration with water. 50 μl of the active ingredient preparation are transferred into microtitre plates and made up to a final volume of 200 μl with 150 μl of IPL41 insect medium (33%+15% sugar). Subsequently, the plates are sealed with parafilm, which a mixed population of green peach aphids (Myzus persicae) within a second microtitre plate is able to puncture and imbibe the solution. After 5 days, the efficacy in % is determined. 100% means that all the aphids have been killed; 0% means that no aphids have been killed.

For the next series, the system named is Musca domestica. Kind of series: Musca domestica test. Type of series: in vivo. The following applies: application rate 100 ppm, adult houseflies, after 2 days. Here is the method:
Musca domestica Test Solvent: dimethyl sulfoxide To produce a suitable active ingredient formulation, 10 mg of active ingredient are mixed with 0.5 ml of dimethyl sulfoxide, and the concentrate is diluted with water to the desired concentration. Vessels containing a sponge treated with sugar solution and the active ingredient formulation of the desired concentration are populated with 10 adult houseflies (Musca domestica). After 2 days, the kill in % is determined. 100% means that all of the flies have been killed; 0% means that none of the flies have been killed.

Series [2] relates to Myzus persicae. Briefly: Myzus persicae spray test. The series is classed as in vivo. The following applies: foliar, 120 h, spray on Chinese cabbage leaf discs, after 5 days, read-out: efficacy (aphids killed); for pest or weed control at 20 g/ha: application rate 20 g/ha; for pest or weed control at 100 g/ha: application rate 100 g/ha. Here is the method: Myzus persicae—Spray Test Solvent: 78 parts by weight of acetone • • 1.5 parts by weight of dimethylformamide Emulsifier: alkylaryl polyglycol ether To produce a suitable active ingredient formulation, 1 part by weight of active ingredient is dissolved with the specified parts by weight of solvent and made up to the desired concentration with water containing an emulsifier concentration of 1000 ppm. To produce further test concentrations, the formulation is diluted with emulsifier-containing water. Discs of Chinese cabbage leaves (Brassica pekinensis) infested by all stages of the green peach aphid (Myzus persicae) are sprayed with an active ingredient formulation of the desired concentration. After 5 days, the efficacy in % is determined. 100% means that all the aphids have been killed; 0% means that no aphids have been killed.

For series [3], the system named is Ctenocephalides felis. Briefly: Ctenocephalides felis in vitro contact test with adult cat fleas. Type of series: in vivo. The following applies: application rate 5 μg/cm^2 (=500 g/ha), after 48 h. Here is the method:
Ctenocephalides felis—In Vitro Contact Tests with Adult Cat Fleas For the coating of the test tubes, 9 mg of active ingredient are first dissolved in 1 ml of acetone p.a. and then diluted to the desired concentration with acetone p.a. 250 μl of the solution are distributed homogeneously on the inner walls and the base of a 25 ml glass tube by turning and rocking on an orbital shaker (rocking rotation at 30 rpm for 2 h). With 900 ppm of active ingredient solution and internal surface area 44.7 cm^2, given homogeneous distribution, an area-based dose of 5 μg/cm^2 is achieved. After the solvent has evaporated off, the tubes are populated with 5-10 adult cat fleas (Ctenocephalides felis), sealed with a perforated plastic lid and incubated in a horizontal position at room temperature and ambient humidity. After 48 h, efficacy is determined. To this end, the tubes are stood upright and the fleas are knocked to the base of the tube. Fleas which remain motionless at the base or move in an uncoordinated manner are considered to be dead or moribund. […] 100% efficacy means that all the fleas were dead or moribund. 0% efficacy means that no fleas were harmed.

A short description of series [4]: log P by HPLC on reversed-phase column (EEC Directive 79/831 Annex V.A8), acidic range. The following applies: reversed-phase C18 HPLC column; HPLC reversed-phase C18, 55° C., pH 2.7, 0.1% aqueous formic acid and acetonitrile; read-out: log P (HCOOH). Type of series: physicochemical. As to the method: The log P values are measured according to EEC Directive 79/831 Annex V.A8 by HPLC (high-performance liquid chromatography) on a reversed-phase column (C18). Temperature: 55° C. The LC-MS determination in the acidic range is effected at pH 2.7 with 0.1% aqueous formic acid and acetonitrile (containing 0.1% formic acid) as eluents; linear gradient from 10% acetonitrile to 95% acetonitrile. Called log P (HCOOH) in the table.

The next series deals with Spodoptera frugiperda. Kind of series: Spodoptera frugiperda spray test. Type of series: in vivo. The following applies: application rate 100 g/ha, spray on maize leaf discs, after 7 days. As to the method: Spodoptera frugiperda—Spray Test Solvent: 78.0 parts by weight of acetone • • 1.5 parts by weight of dimethylformamide Emulsifier: alkylaryl polyglycol ether To produce a suitable active ingredient formulation, 1 part by weight of active ingredient is dissolved with the specified parts by weight of solvent and made up to the desired concentration with water containing an emulsifier concentration of 1000 ppm. To produce further test concentrations, the formulation is diluted with emulsifier-containing water. Leaf discs of maize (Zea mays) are sprayed with an active ingredient formulation of the desired concentration and, after drying, populated with caterpillars of the armyworm (Spodoptera frugiperda). After 7 days, the efficacy in % is determined. 100% means that all the caterpillars have been killed; 0% means that no caterpillar has been killed.

For series [5], the system named is Ctenocephalides felis. Briefly: Ctenocephalides felis oral test. The series is classed as in vivo. The following applies: application rate 100 ppm in citrated cattle blood, after 2 days, adult cat fleas. Here is the method: Ctenocephalides felis—Oral Test Solvent: dimethyl sulfoxide To produce a suitable active ingredient formulation, 10 mg of active ingredient are mixed with 0.5 ml of dimethyl sulfoxide. Dilution with citrated cattle blood gives the desired concentration. About 20 unfed adult cat fleas (Cienocephalides felis) are placed into a chamber which is closed at the top and bottom with gauze. A metal cylinder whose bottom end is closed with parafilm is placed onto the chamber. The cylinder contains the blood/active ingredient formulation, which can be imbibed by the fleas through the parafilm membrane. After 2 days, the kill in % is determined. 100% means that all of the fleas have been killed; 0% means that none of the fleas have been killed.

For the molecule `CCS(=O)(=O)c1c(-c2nc3cc(C(F)(F)F)ccc3n2C)nc2n1CCCC2` [Example I-015], the “efficacy (kill)” value in the series on Lucilia cuprina was 100%. Moreover, the “efficacy (beetle larvae killed)” value with Phaedon cochleariae (application rate 100 g/ha) was 83%. The pest or weed control at 4 ppm with Myzus persicae [1] amounted to 100%. The “efficacy (kill)” value with Musca domestica was found to be 90%. Moreover, in the series with Myzus persicae [2], the pest or weed control at 20 g/ha is 90% and the pest or weed control at 100 g/ha came out at 90%.
Take `CCS(=O)(=O)c1c(-c2nc3cc(S(=O)(=O)C(F)(F)F)cnc3n2C)nc2n1CCCC2` [Example I-021]: the “efficacy (beetle larvae killed)” value in the series on Phaedon cochleariae (application rate 100 g/ha) stood at 100%. Moreover, in the series with Myzus persicae [1], the pest or weed control at 4 ppm was 100%. For the same molecule, in the series on Myzus persicae [2], the pest or weed control at 20 g/ha turned out to be 90% and the pest or weed control at 100 g/ha worked out at 100%.
With `CCS(=O)(=O)c1c(-c2nc3cc(SC(F)(F)F)cnc3n2C)nc2n1CCCC2` [Example I-020], the “efficacy (beetle larvae killed)” value in the series with Phaedon cochleariae (application rate 100 g/ha) stood at 100%. In addition, the pest or weed control at 4 ppm in the series with Myzus persicae [1] was 100%. In the series on Myzus persicae [2], the pest or weed control at 20 g/ha was 90% and the pest or weed control at 100 g/ha turned out to be 90%.
Consider `CCSc1c(-c2nc3cc(C(F)(F)F)ncc3n2C)nc2n1CCCC2` [Example I-001, 2-(3-Ethylsulfanyl-5,6,7,8-tetrahydroimidazo[1,2-a]pyridin-2-yl)-3-methyl-6-(trifluoromethyl)imidazo[4,5-c]pyridine], for which the “efficacy (fleas dead or moribund)” value in the series with Ctenocephalides felis [3] was 100%. In addition, the chromatographic logP in [4] is 2.37.
On to `CCS(=O)(=O)c1c(-c2nc3cc(C(F)(F)C(F)(F)F)cnc3n2C)nc2n1CCCC2` [Example I-017], for which, in the series on Myzus persicae [1], the pest or weed control at 4 ppm is 100%. Besides, the “efficacy (caterpillars killed)” value with Spodoptera frugiperda was 100%. For the same molecule, in the series with Myzus persicae [2], the pest or weed control at 20 g/ha was 90% and the pest or weed control at 100 g/ha worked out at 100%.
Consider `CCS(=O)(=O)c1c(-c2nc3cc(C(F)(F)F)ncc3n2C)nc2n1CCCC2O` (stereo not drawn) [Example I-024, 3-Ethylsulfonyl-2-[3-methyl-6-(trifluoromethyl)imidazo[4,5-c]pyridin-2-yl]-5,6,7,8-tetrahydro-imidazo[1,2-a]pyridin-8-ol], for which the pest or weed control at 4 ppm with Myzus persicae [1] came to 100%. Moreover, the chromatographic logP in series [4] is 1.6. For the same molecule, the pest or weed control at 100 g/ha in the series on Myzus persicae [2] came out at 90%.
As for `CCS(=O)(=O)c1c(-c2nc3cc(C(F)(F)F)ncc3n2C)nc2n1CCCC2` [Example I-002, 2-(3-Ethylsulfonyl-5,6,7,8-tetrahydroimidazo[1,2-a]pyridin-2-yl)-3-methyl-6-(trifluoromethyl)imidazo[4,5-c]pyridine], the “efficacy (beetle larvae killed)” value with Phaedon cochleariae (application rate 500 g/ha) is recorded as 83%. Also, the chromatographic logP in series [4] is 1.97. Further, in the series with Myzus persicae [2], the pest or weed control at 20 g/ha was determined as 90% and the pest or weed control at 100 g/ha worked out at 90%. The pest or weed control at 500 g/ha in the series on Myzus persicae [2] (application rate 500 g/ha) worked out at 90%.
As for `Cn1c(-c2nc3n(c2S(C)(=O)=O)CCCC3)nc2cc(C(F)(F)F)cnc21` [Example I-014], the “efficacy (kill)” value in the series with Lucilia cuprina and in the series with Musca domestica was 100% in each case. Further, in the series on Myzus persicae [1], the pest or weed control at 4 ppm amounted to 100%. Besides, the pest or weed control at 100 g/ha in the series on Myzus persicae [2] worked out at 90%.
Consider `CCS(=O)(=O)c1c(-c2nc3cc(C(F)(F)C(F)(F)F)ncc3n2C)nc2n1CCC(C)C2` (stereo not drawn) [Example I-034, 2-(3-Ethylsulfonyl-7-methyl-5,6,7,8-tetrahydroimidazo[1,2-a]pyridin-2-yl)-3-methyl-6-(1,1,2,2,2-pentafluoroethyl)imidazo[4,5-c]pyridine], for which, in series [4], the chromatographic logP was determined as 2.8.
`Cn1c(-c2nc3n(c2S(C)(=O)=O)CCCC3)nc2cc(C(F)(F)C(F)(F)F)ncc21` [Example I-013]: the entries for the “efficacy (kill)” value with Lucilia cuprina, with Ctenocephalides felis [5] and in the series with Musca domestica were 100%, 95% and 80%, respectively. Further, the “efficacy (beetle larvae killed)” value with Phaedon cochleariae (application rate 100 g/ha) is 83%. The pest or weed control at 4 ppm in the series with Myzus persicae [1] was 100%. In the series with Myzus persicae [2], the pest or weed control at 100 g/ha worked out at 90%.
Consider `CCS(=O)(=O)c1c(-c2nc3cc(C(F)(F)F)nc(C(F)F)c3n2C)nc2n1CCCC2` [Example I-025, 4-(Difluoromethyl)-2-[3-(ethylsulfonyl)-5,6,7,8-tetrahydroimidazo[1,2-a]pyridin-2-yl]-3-methyl-6-(trifluoromethyl)-3H-imidazo[4,5-c]pyridine], for which the pest or weed control at 4 ppm with Myzus persicae [1] amounted to 100%. Also, the chromatographic logP in series [4] was 2.8.
In the case of `CCS(=O)(=O)c1c(-c2nc3cc(C(F)(F)F)cnc3n2C)nc2n1CCCC2` [Example I-011], the “efficacy (kill)” value is given as 100% in the series with Lucilia cuprina, 95% in the series on Ctenocephalides felis [5] and 80% in the series with Musca domestica. Also, in the series with Myzus persicae [1], the pest or weed control at 4 ppm was determined as 100%. For the same molecule, in the series with Myzus persicae [2], the pest or weed control at 20 g/ha was determined as 90%. The pest or weed control at 100 g/ha in the series with Myzus persicae [2] was determined as 90%.
On to `CCS(=O)(=O)c1c(-c2nc3cc(C(F)(F)F)nc(C)c3n2C)nc2n1CCCC2` [Example I-039, 2-(3-Ethylsulfonyl-5,6,7,8-tetrahydroimidazo[1,2-a]pyridin-2-yl)-3,4-dimethyl-6-(trifluoromethyl)imidazo[4,5-c]pyridine], for which the chromatographic logP in [4] turned out to be 2.1.
As to `CCS(=O)(=O)c1c(-c2nc3cc(C(F)(F)F)ncc3n2C)nc2n1CCC(C(F)(F)F)C2` (stereo not drawn) [Example I-010], the pest or weed control at 4 ppm in the series on Myzus persicae [1] stood at 100%. For the same molecule, in the series with Spodoptera frugiperda, the “efficacy (caterpillars killed)” value turned out to be 83%. In the series on Myzus persicae [2], the pest or weed control at 20 g/ha stood at 90%.

The values above are taken from US10660334B2, “Fused bicyclic heterocycle derivatives as pesticides” (Bayer CropScience Aktiengesellschaft, priority 2016, dated 2020).
